Source: PMC9090415, “Discovery of small molecule inhibitors of Plasmodium falciparum apicoplast DNA polymerase” (Journal of Enzyme Inhibition and Medicinal Chemistry, 2022)

Target: T1, bacteriophage T4 DNA polymerase (Enterobacteria phage T4, UniProt P04415)
T1 construct: made in house
T1 sequence (P04415 1-898): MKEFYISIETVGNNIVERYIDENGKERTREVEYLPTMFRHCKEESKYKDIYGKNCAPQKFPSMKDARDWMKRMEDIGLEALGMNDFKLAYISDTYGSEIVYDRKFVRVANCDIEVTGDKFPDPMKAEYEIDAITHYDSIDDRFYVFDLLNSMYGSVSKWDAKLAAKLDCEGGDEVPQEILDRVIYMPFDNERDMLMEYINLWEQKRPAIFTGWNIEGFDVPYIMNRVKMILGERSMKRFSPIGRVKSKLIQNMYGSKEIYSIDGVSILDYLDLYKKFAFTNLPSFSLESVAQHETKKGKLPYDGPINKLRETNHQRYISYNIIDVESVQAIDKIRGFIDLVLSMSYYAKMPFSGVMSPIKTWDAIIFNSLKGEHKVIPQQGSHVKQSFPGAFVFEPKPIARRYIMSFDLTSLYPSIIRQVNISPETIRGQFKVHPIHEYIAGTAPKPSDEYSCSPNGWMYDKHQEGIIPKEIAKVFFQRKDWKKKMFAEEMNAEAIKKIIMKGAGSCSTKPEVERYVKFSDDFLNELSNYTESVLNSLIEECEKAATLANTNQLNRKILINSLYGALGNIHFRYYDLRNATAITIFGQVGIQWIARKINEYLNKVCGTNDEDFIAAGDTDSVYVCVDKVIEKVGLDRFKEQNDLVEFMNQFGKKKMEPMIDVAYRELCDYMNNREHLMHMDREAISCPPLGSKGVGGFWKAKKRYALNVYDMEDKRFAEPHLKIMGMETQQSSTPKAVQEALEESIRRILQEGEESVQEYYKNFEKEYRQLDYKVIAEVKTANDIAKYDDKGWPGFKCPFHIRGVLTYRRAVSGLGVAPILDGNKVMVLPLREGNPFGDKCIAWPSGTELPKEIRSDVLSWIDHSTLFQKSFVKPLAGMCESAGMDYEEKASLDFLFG
Experiment: Counter-screen against bacteriophage T4 DNA polymerase
Type: biochemical
Conditions: for % inhibition T4 10' 2.5 / % inhibition T4 10' 5 / % inhibition T4 10' 10 / % inhibition T4 10' 20 / % inhibition T4 10' 40 / % inhibition T4 10' 80: read at 10'; for % inhibition T4 70' 2.5 / % inhibition T4 70' 5 / % inhibition T4 70' 10 / % inhibition T4 70' 20 / % inhibition T4 70' 40 / % inhibition T4 70' 80: read at 70'; for % inhibition T4 130' 2.5 / % inhibition T4 130' 5 / % inhibition T4 130' 10 / % inhibition T4 130' 20 / % inhibition T4 130' 40 / % inhibition T4 130' 80: read at 130'; for % inhibition T4 40' 2.5 / % inhibition T4 40' 5 / % inhibition T4 40' 10 / % inhibition T4 40' 20 / % inhibition T4 40' 40 / % inhibition T4 40' 80: read at 40'; for % inhibition T4 90' 2.5 / % inhibition T4 90' 5 / % inhibition T4 90' 10 / % inhibition T4 90' 20 / % inhibition T4 90' 40 / % inhibition T4 90' 80: read at 90'; for % inhibition T4 180' 2.5 / % inhibition T4 180' 5 / % inhibition T4 180' 10 / % inhibition T4 180' 20 / % inhibition T4 180' 40 / % inhibition T4 180' 80: read at 180'
Method in brief: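 IC50 values come from dose-response testing of each compound against T4 DNA polymerase. This B-family polymerase was purified in-house and used as the counter-screen.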

Cn1nc(-c2nc(-c3ccccc3)no2)c2c1CCN(C(=O)Cc1cccs1)C2 [Molecule 58, O=C(N1CCc2c(C1)c(nn2C)c1onc(n1)c1ccccc1)Cc1cccs1]
% inhibition T4 10' 2.5 (DRC-1, concentration 2.5): 2%
% inhibition T4 10' 5 (DRC-1, concentration 5): 6%
% inhibition T4 10' 10 (DRC-1, concentration 10): 20%
% inhibition T4 10' 20 (DRC-1, concentration 20): 24%
% inhibition T4 10' 40 (DRC-1, concentration 40): 35%
% inhibition T4 10' 80 (DRC-1, concentration 80): 33%
% inhibition T4 70' 2.5 (DRC-1, concentration 2.5): -0.863%
% inhibition T4 70' 5 (DRC-1, concentration 5): 0.684%
% inhibition T4 70' 10 (DRC-1, concentration 10): 13%
% inhibition T4 70' 20 (DRC-1, concentration 20): 17%
% inhibition T4 70' 40 (DRC-1, concentration 40): 26%
% inhibition T4 70' 80 (DRC-1, concentration 80): 37%
% inhibition T4 130' 2.5 (DRC-1, concentration 2.5): -2.41%
% inhibition T4 130' 5 (DRC-1, concentration 5): -0.486%
% inhibition T4 130' 10 (DRC-1, concentration 10): 9%
% inhibition T4 130' 20 (DRC-1, concentration 20): 14%
% inhibition T4 130' 40 (DRC-1, concentration 40): 24%
% inhibition T4 130' 80 (DRC-1, concentration 80): 33%
% inhibition T4 10' 2.5 (DRC-2, concentration 2.5): 2.64%
% inhibition T4 10' 5 (DRC-2, concentration 5): 8%
% inhibition T4 10' 10 (DRC-2, concentration 10): 17%
% inhibition T4 10' 20 (DRC-2, concentration 20): 20%
% inhibition T4 10' 40 (DRC-2, concentration 40): 23%
% inhibition T4 10' 80 (DRC-2, concentration 80): 20%
% inhibition T4 40' 2.5 (DRC-2, concentration 2.5): 2.18%
% inhibition T4 40' 5 (DRC-2, concentration 5): 6.41%
% inhibition T4 40' 10 (DRC-2, concentration 10): 17%
% inhibition T4 40' 20 (DRC-2, concentration 20): 22%
% inhibition T4 40' 40 (DRC-2, concentration 40): 27%
% inhibition T4 40' 80 (DRC-2, concentration 80): 25%
% inhibition T4 90' 2.5 (DRC-2, concentration 2.5): 2.76%
% inhibition T4 90' 5 (DRC-2, concentration 5): 7%
% inhibition T4 90' 10 (DRC-2, concentration 10): 17%
% inhibition T4 90' 20 (DRC-2, concentration 20): 21%
% inhibition T4 90' 40 (DRC-2, concentration 40): 24%
% inhibition T4 90' 80 (DRC-2, concentration 80): 22%
% inhibition T4 180' 2.5 (DRC-2, concentration 2.5): -1.52%
% inhibition T4 180' 5 (DRC-2, concentration 5): 1.9%
% inhibition T4 180' 10 (DRC-2, concentration 10): 13%
% inhibition T4 180' 20 (DRC-2, concentration 20): 15%
% inhibition T4 180' 40 (DRC-2, concentration 40): 20%
% inhibition T4 180' 80 (DRC-2, concentration 80): 20%

CN(C)S(=O)(=O)Oc1ccc(-c2noc(-c3ccc(Oc4cc(Cl)cc(Cl)c4)o3)n2)cc1 [KU0263859]
% inhibition T4 10' (DRC-2, concentration 5): 17%
% inhibition T4 10' (DRC-2, concentration 10): 35%
% inhibition T4 10' (DRC-2, concentration 20): 35%
% inhibition T4 40' (DRC-2, concentration 5): 17%
% inhibition T4 40' (DRC-2, concentration 20): 38%
% inhibition T4 40' (DRC-2, concentration 40): 43%
% inhibition T4 40' (DRC-2, concentration 80): 43%
% inhibition T4 90' (DRC-2, concentration 20): 35%
% inhibition T4 180' (DRC-2, concentration 40): 38%
% inhibition T4 180' (DRC-2, concentration 80): 43%

COc1ccc(-c2cc3nc4c(c(=O)n3[nH]2)CCN(C(=O)CCc2ccccc2)C4)cc1 [Molecule 17, COc1ccc(cc1)c1[nH]n2c(c1)nc1c(c2=O)CCN(C1)C(=O)CCc1ccccc1]
% inhibition T4 10' (DRC-2, concentration 2.5): -22%
% inhibition T4 10' (DRC-2, concentration 5): -46%
% inhibition T4 10' (DRC-2, concentration 10): -38%
% inhibition T4 10' (DRC-2, concentration 20): -44%
% inhibition T4 10' (DRC-2, concentration 40): -44%
% inhibition T4 40' (DRC-2, concentration 5): -38%
% inhibition T4 40' (DRC-2, concentration 10): -30%
% inhibition T4 90' (DRC-2, concentration 10): -25%
% inhibition T4 90' (DRC-2, concentration 40): -30%
% inhibition T4 90' (DRC-2, concentration 80): -46%
% inhibition T4 180' (DRC-2, concentration 2.5): -13%
% inhibition T4 180' (DRC-2, concentration 10): -22%
% inhibition T4 180' (DRC-2, concentration 20): -23%
% inhibition T4 180' (DRC-2, concentration 40): -25%

Cc1ccc(C(=O)/C=C/C=C/C=C/N(C)C)o1 [Molecule 96, CN(/C=C/C=C/C=C/C(=O)c1ccc(o1)C)C]
% inhibition T4 10' (DRC-2, concentration 10): 11%
% inhibition T4 90' (DRC-2, concentration 5): 11%

Cl.NC(CO)C(=O)NNCc1ccc(O)c(O)c1O (stereo not drawn) [KU0260493]
% inhibition T4 10' (DRC-2, concentration 2.5): -17%
% inhibition T4 10' (DRC-2, concentration 10): -11%
% inhibition T4 90' (DRC-2, concentration 2.5): -11%
% inhibition T4 180' (DRC-2, concentration 5): -17%

Cc1cc2[nH]c(C(=O)Nc3ccc(F)cc3)c(CN3CCOCC3)c2s1 [Molecule 60, Fc1ccc(cc1)NC(=O)c1[nH]c2c(c1CN1CCOCC1)sc(c2)C]
% inhibition T4 10' 2.5 (DRC-1, concentration 2.5): 1.711%
% inhibition T4 10' 5 (DRC-1, concentration 5): 9.215%
% inhibition T4 10' 10 (DRC-1, concentration 10): 21.452%
% inhibition T4 10' 20 (DRC-1, concentration 20): 34.4714%
% inhibition T4 10' 40 (DRC-1, concentration 40): 38.1099%
% inhibition T4 10' 80 (DRC-1, concentration 80): 40.6852%
% inhibition T4 70' 2.5 (DRC-1, concentration 2.5): 0.0854%
% inhibition T4 70' 5 (DRC-1, concentration 5): 3.336%
% inhibition T4 70' 10 (DRC-1, concentration 10): 13.8719%
% inhibition T4 70' 20 (DRC-1, concentration 20): 20.2889%
% inhibition T4 70' 40 (DRC-1, concentration 40): 27.4388%
% inhibition T4 70' 80 (DRC-1, concentration 80): 27.0179%
% inhibition T4 130' 2.5 (DRC-1, concentration 2.5): -1.799%
% inhibition T4 130' 5 (DRC-1, concentration 5): 0.5371%
% inhibition T4 130' 10 (DRC-1, concentration 10): 9.245%
% inhibition T4 130' 20 (DRC-1, concentration 20): 15.4607%
% inhibition T4 130' 40 (DRC-1, concentration 40): 21.1797%
% inhibition T4 130' 80 (DRC-1, concentration 80): 22.3923%
% inhibition T4 10' 2.5 (DRC-2, concentration 2.5): 5.28%
% inhibition T4 10' 5 (DRC-2, concentration 5): 2.77%
% inhibition T4 10' 10 (DRC-2, concentration 10): 13%
% inhibition T4 10' 20 (DRC-2, concentration 20): 21%
% inhibition T4 10' 40 (DRC-2, concentration 40): 25%
% inhibition T4 10' 80 (DRC-2, concentration 80): 25%
% inhibition T4 40' 2.5 (DRC-2, concentration 2.5): 3.64%
% inhibition T4 40' 5 (DRC-2, concentration 5): 2.11%
% inhibition T4 40' 10 (DRC-2, concentration 10): 12%
% inhibition T4 40' 20 (DRC-2, concentration 20): 21%
% inhibition T4 40' 40 (DRC-2, concentration 40): 26%
% inhibition T4 40' 80 (DRC-2, concentration 80): 27%
% inhibition T4 90' 2.5 (DRC-2, concentration 2.5): 4%
% inhibition T4 90' 5 (DRC-2, concentration 5): 2.34%
% inhibition T4 90' 10 (DRC-2, concentration 10): 12%
% inhibition T4 90' 20 (DRC-2, concentration 20): 19%
% inhibition T4 90' 40 (DRC-2, concentration 40): 24%
% inhibition T4 90' 80 (DRC-2, concentration 80): 25%
% inhibition T4 180' 2.5 (DRC-2, concentration 2.5): -1.07%
% inhibition T4 180' 5 (DRC-2, concentration 5): -2.8%
% inhibition T4 180' 10 (DRC-2, concentration 10): 6%
% inhibition T4 180' 20 (DRC-2, concentration 20): 13%
% inhibition T4 180' 40 (DRC-2, concentration 40): 20%
% inhibition T4 180' 80 (DRC-2, concentration 80): 23%
